Legend:
[1] = tested on: A. nosocomialis biofilm formation; assay: Biofilm formation, microplate assay with crystal violet staining; type: cell-based, Acinetobacter nosocomialis; details: WT, P < 0.05
Source text: The inhibitors may thus interact with conserved features of the PilB ATPase family. A. nosocomialis PilB ([19]), whose N terminus is not similar to the MshEN domain (data not shown), shares ~53% identity and ~74% homology with MxPilB and MC3PilB in the ATPase domain (Fig. S1). We analyzed whether benserazide and levodopa could impact the T4P-powered twitching motility ([19], [44]) of A. nosocomialis (Fig. 7), an opportunistic pathogen in the Acinetobacter calcoaceticus-Acinetobacter baumannii (ACB) complex ([45]). As shown in Fig. 7A and B and Fig. S7, benserazide and levodopa impede the twitching motility of WT A. nosocomialis in a concentration-dependent manner.
FIG 7 Benserazide and levodopa inhibit Acinetobacter nosocomialis twitching motility and biofilm formation. […] (C and D) Biofilms formed by A. nosocomialis with (C) benserazide or (D) levodopa were analyzed by a microplate assay with crystal violet (CV) staining. […]
The A. nosocomialis wild-type M2 strain and an isogenic pilA deletion (ΔpilA) mutant ([19], [46]) were used in this study. […] The twitching motility of the M2 strain of A. nosocomialis was analyzed with 1% crystal violet (CV) for staining, and twitching areas were used as measures of motility as previously described ([46]). […] A. nosocomialis biofilm formation was analyzed using microplates and CV staining as previously described ([53], [54]). […]

[2] = tested on: Escherichia coli; assay: Growth in liquid culture; type: cell-based; details: up to 512 μM (highest tested), data not shown
Source text: (§1) These include many bacteria with alarming prevalence for causing antibiotic-resistant infection ([12]). […] This is important because, for the development of antivirulence chemotherapies, the small molecules should not have an inhibitory effect on bacterial growth. Otherwise, they would select for resistance, just like antibiotics. From a chemical structure perspective, levodopa is 3,4-dihydroxyphenylalanine (Fig. 2), or phenylalanine with two hydroxyl groups. […] These preliminary studies of structure and activity relationships are consistent with benserazide and levodopa being specific inhibitors of PilB. As mentioned earlier, work with trifluoperazine ([25]) and P4MP4 ([26], [27]) has provided the proof of principle for antivirulence therapies with anti-T4P compounds. It is also encouraging that a compound targeting the adhesin function of the type 1 pilus of the uropathogenic E. coli (UPEC) ([47]) has moved to the clinical trial phase in the drug development pipeline ([48]).

[3] = molecular target: CtPilB (Chloracidobacterium thermophilum, UniProt G2LDI3); assay: MANT-ATP binding to CtPilB (fluorescence); details: for Ki: estimated by Cheng-Prusoff equation from MANT-ATP IC50, assuming competitive inhibition, read-out: Ki (inhibition constant); for IC50: fraction of MANT-ATP bound, fluorescence
Protocol: To probe the mechanisms of inhibition, we examined benserazide and levodopa for their effects on the binding of PilB to the fluorescent ATP analog MANT-ATP ([28]).
FIG 3 Benserazide and levodopa reduce MANT-ATP binding to CtPilB. Fluorescence was used to calculate the fraction of MANT-ATP bound to CtPilB. Experiments were performed in triplicates with samples containing constant concentrations of CtPilB and MANT-ATP with varying concentrations of (A) benserazide or (B) levodopa. The three different sets of colored dots represent averages from three independent experiments with error bars omitted for clarity. Best fits to isotherms with indicated IC50s are shown.
The effects of inhibitors on the ATPase activity of CtPilB and CtPilBΔN and the binding of MANT-ATP were determined as described previously ([28], [29]). Stock solutions were prepared by dissolving benserazide hydrochloride (Alfa Aesar) or levodopa (Spectrum Chemical Mfg. Corp.) in dimethyl sulfoxide (DMSO; Fisher Biotech). Next, 10× working stocks for given concentrations of an inhibitor were freshly prepared before their use in an experiment. GraphPad Prism v7.04 was used for curve fitting and Student’s t test was used for statistical analysis.

[4] = tested on: M. xanthus pilin (PilA) production; assay: Pilin production, dot blot of whole cells with anti-PilA antibodies; type: cell-based, Myxococcus xanthus; details: strain YZ603, whole cell dot blot
Protocol: Fig. 6A and B show a representative of the data from three biological experiments, each conducted with 4 technical replicates (R1 to R4).
Piliation levels of the M. xanthus strain YZ603 (ΔdifE) ([52]) were analyzed by dot-blotting with anti-PilA antibodies as previously described ([28]). This study included a fraction representing the “Basal” T4P levels for a given treatment. […] These fractions were used as controls and subtracted as the baseline in data analysis.

[5] = tested on: M. xanthus; assay: Growth in liquid culture; type: cell-based, Myxococcus xanthus; details: up to 512 μM (highest tested), data not shown
Source text: as §1

CtPilB, sequence (G2LDI3 entry or part of it): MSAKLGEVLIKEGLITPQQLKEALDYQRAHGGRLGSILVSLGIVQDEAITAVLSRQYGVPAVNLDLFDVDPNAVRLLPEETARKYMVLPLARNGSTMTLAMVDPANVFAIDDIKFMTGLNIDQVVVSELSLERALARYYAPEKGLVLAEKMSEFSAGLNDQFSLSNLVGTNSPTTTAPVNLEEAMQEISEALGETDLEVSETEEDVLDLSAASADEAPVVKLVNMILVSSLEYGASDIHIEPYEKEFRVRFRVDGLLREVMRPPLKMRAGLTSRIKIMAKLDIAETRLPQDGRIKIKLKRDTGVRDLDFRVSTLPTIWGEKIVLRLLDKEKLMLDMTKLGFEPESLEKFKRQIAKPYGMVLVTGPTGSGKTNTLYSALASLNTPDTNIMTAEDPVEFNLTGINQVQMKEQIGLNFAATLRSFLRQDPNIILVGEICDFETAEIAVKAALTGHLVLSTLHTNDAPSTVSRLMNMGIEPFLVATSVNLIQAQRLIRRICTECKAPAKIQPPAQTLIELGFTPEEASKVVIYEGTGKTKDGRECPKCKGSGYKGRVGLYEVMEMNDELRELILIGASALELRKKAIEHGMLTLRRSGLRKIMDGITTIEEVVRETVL

Row | SMILES | concentration significantly reducing biofilm formation [1] | effect on growth in liquid culture [2] | Ki [3] | IC50 [3] | effect on pilin production level [4] | effect on growth in liquid culture [5]
1 | NC(CO)C(=O)NNCc1ccc(O)c(O)c1O (stereo not drawn) [benserazide] | ≥ 32 µM | neither benserazide nor levodopa had any discernible effect on the growth | 2.27 µM | 33.6 ± 0.5 µM | neither compound had any detectable effect | neither benserazide nor levodopa had any discernible effect on the growth
2 | N[C@@H](Cc1ccc(O)c(O)c1)C(=O)O [levodopa, 3,4-dihydroxyphenylalanine] | ≥ 32 µM | neither benserazide nor levodopa had any discernible effect on the growth | 3.4 µM | 50.5 ± 9.2 µM | neither compound had any detectable effect | neither benserazide nor levodopa had any discernible effect on the growth

Reference: paper PMC9769694, “Discovery of Two Inhibitors of the Type IV Pilus Assembly ATPase PilB as Potential Antivirulence Compounds” (Microbiology Spectrum, 2022)
